The data set deals with ATP-dependent translocase ABCB1 (Homo sapiens, UniProt P08183). As to the kind of experiment: TP_TRANSPORTER: drug resistance (vinblastine) in KB-V1 cells. Type of data set: functional, cell-based.
ATP-dependent translocase ABCB1, sequence (P08183 whole entry): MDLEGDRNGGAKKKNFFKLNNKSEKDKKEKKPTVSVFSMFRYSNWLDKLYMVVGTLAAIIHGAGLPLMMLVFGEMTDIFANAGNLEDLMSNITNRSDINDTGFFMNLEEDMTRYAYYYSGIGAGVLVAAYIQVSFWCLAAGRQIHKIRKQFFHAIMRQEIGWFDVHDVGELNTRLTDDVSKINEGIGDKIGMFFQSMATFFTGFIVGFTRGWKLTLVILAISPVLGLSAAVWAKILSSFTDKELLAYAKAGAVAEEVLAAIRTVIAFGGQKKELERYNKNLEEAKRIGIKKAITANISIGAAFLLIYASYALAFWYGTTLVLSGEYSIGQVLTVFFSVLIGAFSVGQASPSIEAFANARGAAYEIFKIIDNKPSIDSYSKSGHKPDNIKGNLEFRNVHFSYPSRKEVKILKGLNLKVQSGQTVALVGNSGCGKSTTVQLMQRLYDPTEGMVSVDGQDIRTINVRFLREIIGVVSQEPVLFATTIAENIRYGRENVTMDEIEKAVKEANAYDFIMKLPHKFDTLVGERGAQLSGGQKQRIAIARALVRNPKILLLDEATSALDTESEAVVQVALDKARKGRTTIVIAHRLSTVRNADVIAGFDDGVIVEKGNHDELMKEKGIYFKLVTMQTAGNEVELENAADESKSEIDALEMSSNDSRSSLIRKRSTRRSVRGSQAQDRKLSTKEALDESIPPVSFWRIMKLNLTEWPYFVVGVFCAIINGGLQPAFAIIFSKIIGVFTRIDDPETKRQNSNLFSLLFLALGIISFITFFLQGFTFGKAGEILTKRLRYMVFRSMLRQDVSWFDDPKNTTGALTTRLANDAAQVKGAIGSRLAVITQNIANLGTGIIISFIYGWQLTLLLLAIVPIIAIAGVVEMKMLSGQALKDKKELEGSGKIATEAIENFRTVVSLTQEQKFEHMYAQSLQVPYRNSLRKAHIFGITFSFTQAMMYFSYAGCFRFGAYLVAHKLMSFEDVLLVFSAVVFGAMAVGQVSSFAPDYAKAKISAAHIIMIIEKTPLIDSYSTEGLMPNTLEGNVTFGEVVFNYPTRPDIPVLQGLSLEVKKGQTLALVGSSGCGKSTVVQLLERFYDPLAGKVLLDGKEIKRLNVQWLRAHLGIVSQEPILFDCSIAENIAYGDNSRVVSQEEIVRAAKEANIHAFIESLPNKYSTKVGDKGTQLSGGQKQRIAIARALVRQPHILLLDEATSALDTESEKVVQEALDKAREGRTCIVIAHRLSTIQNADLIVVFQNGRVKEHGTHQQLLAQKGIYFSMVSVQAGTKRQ

In the case of BITTER MELON LEAF EXTRACT, the Activity entry was “inhibitor [+]”.
